# According to PMC10082216 (Nature Communications, 2023):
# Like-named read-outs stand apart in the source and are kept apart here.
# Assay: TD-6450 phase I clinical study (SAD/MAD): pharmacokinetics
# Type: in vivo, human
# Details: human
# Procedure: Primary and secondary outcomes were pre-defined as follows: Safety and tolerability as a primary outcome, pharmacokinetics as a secondary outcome. Safety and tolerability were evaluated using standard measures, including adverse event (AE) monitoring, clinical laboratory tests (hematology, serum chemistry, coagulation, and urinalysis), vital signs, physical examinations, and 12-lead electrocardiograms (ECGs). […]
# This study was conducted in two parts, Part A (SAD) and Part B (MAD). For the Part A, the age of enrolled subjects ranged from 20 to 60 years, with a mean age range of 32.1 to 46.2 years. Most subjects were male (73 total subjects) and most were white (55 subjects) or black (22 subjects). For Part B of the study, ages ranged from 23 to 60 years with a similar mean age across treatment groups. Most subjects were male (25 total subjects) and all were either white (18 subjects) or black (12 subjects). For each part of the study, the mean body mass index (BMI) and creatinine clearance were similar across treatment groups. […] Part A: Healthy subjects were sequentially enrolled and randomly assigned to each dose cohort (up to 10 dose-ascending cohorts were planned, including a fed arm in the food effect cohort) to receive either a single dose of TD-6450 or placebo. For each dose cohort, 8 subjects were randomized in a 3:1 ratio (6 subjects received TD-6450 and 2 subjects received placebo). The starting dose of TD-6450 was 0.5 mg with a planned maximum dose of 1000 mg. Upon review of the 500-mg cohort PK data, the decision was made to not escalate to the 1000-mg cohort because of exposure saturation at ≥ 500 mg. The following doses were administered: 0.5 mg, 1.5 mg, 5 mg, 15 mg, 30 mg, 60 mg, 120 mg, 240 mg, and 500 mg. Part B: Healthy subjects were sequentially enrolled in 3 ascending dose cohorts (TD-6450 60 mg, 120 mg, and 240 mg) and randomly assigned to receive either TD-6450 or placebo as once daily doses for 14 days. For each dose cohort, 10 subjects were randomized in a 4:1 ratio (8 subjects received TD-6450 and 2 subjects received placebo). Blinded safety, tolerability, and available PK data after each dose cohort were reviewed by the Safety Data Review Committee (SDRC) before escalation to the next dosing cohort for both part A and B. Subjects of the clinical study were randomly assigned to each cohort. Randomizations codes were assigned to the subjects. All study subjects, study investigators, and the sponsor’s staff involved in the conduct of the study were blinded to treatment assignment. The only personnel who had access to the randomization code before database lock were: The pharmacist or pharmacy staff member who prepared drug or placebo capsules for administration to the subject according to the randomization code and the bioanalytical contract laboratory that analyzed the PK samples (plasma and urine).
smiles,measurement,setting,value
CNC(=O)N1C[C@@H](C)N(c2ccc(C(=O)Nc3ccc(-c4ccc(-c5c[nH]c([C@@H]6CCCN6C(=O)[C@@H](NC(=O)OC)C(C)C)n5)cc4)c(OC(F)(F)F)c3)cn2)C[C@@H]1C [TD-6450],concentration at 144 h,"female, plasma, oral, 15 mg, Female subjects, SAD arm NCT02022306, Dose 15.00, 144 Hours, read-out: Concentration",4 ng/mL
same,concentration at 168 h,"female, plasma, oral, 15 mg, Female subjects, SAD arm NCT02022306, Dose 15.00, 168 Hours, read-out: Concentration",3.58 ng/mL
same,concentration at 3 h,"female, plasma, oral, 30 mg, Female subjects, SAD arm NCT02022306, Dose 30.00, 3 Hours, read-out: Concentration",24.8 ng/mL
same,concentration at 4 h,"female, plasma, oral, 30 mg, Female subjects, SAD arm NCT02022306, Dose 30.00, 4 Hours, read-out: Concentration",40.6 ng/mL
same,concentration at 6 h,"female, plasma, oral, 30 mg, Female subjects, SAD arm NCT02022306, Dose 30.00, 6 Hours, read-out: Concentration",70.6 ng/mL
same,concentration at 8 h,"female, plasma, oral, 30 mg, Female subjects, SAD arm NCT02022306, Dose 30.00, 8 Hours, read-out: Concentration",69.5 ng/mL
same,concentration at 12 h,"female, plasma, oral, 30 mg, Female subjects, SAD arm NCT02022306, Dose 30.00, 12 Hours, read-out: Concentration",45.3 ng/mL
same,concentration at 15 min,"female, plasma, oral, 30 mg, Female subjects, SAD arm NCT02022306, Dose 30.00, 15 Minutes, read-out: Concentration",0 ng/mL
same,concentration at 24 h,"female, plasma, oral, 30 mg, Female subjects, SAD arm NCT02022306, Dose 30.00, 24 Hours, read-out: Concentration",34.1 ng/mL
same,concentration at 48 h,"female, plasma, oral, 30 mg, Female subjects, SAD arm NCT02022306, Dose 30.00, 48 Hours, read-out: Concentration",22.3 ng/mL
same,concentration at 72 h,"female, plasma, oral, 30 mg, Female subjects, SAD arm NCT02022306, Dose 30.00, 72 Hours, read-out: Concentration",16.1 ng/mL
same,concentration at 96 h,"female, plasma, oral, 30 mg, Female subjects, SAD arm NCT02022306, Dose 30.00, 96 Hours, read-out: Concentration",10.8 ng/mL
same,concentration at 120 h,"female, plasma, oral, 30 mg, Female subjects, SAD arm NCT02022306, Dose 30.00, 120 Hours, read-out: Concentration",9.27 ng/mL
same,concentration at 144 h,"female, plasma, oral, 30 mg, Female subjects, SAD arm NCT02022306, Dose 30.00, 144 Hours, read-out: Concentration",6.93 ng/mL
same,concentration at 168 h,"female, plasma, oral, 30 mg, Female subjects, SAD arm NCT02022306, Dose 30.00, 168 Hours, read-out: Concentration",5.12 ng/mL
same,concentration at 1 h,"female, plasma, oral, 60 mg, Female subjects, SAD arm NCT02022306, Dose 60.00, 1 Hour, read-out: Concentration",7.46 ng/mL
same,concentration at 2 h,"female, plasma, oral, 60 mg, Female subjects, SAD arm NCT02022306, Dose 60.00, 2 Hours, read-out: Concentration",114 ng/mL
same,concentration at 3 h,"female, plasma, oral, 60 mg, Female subjects, SAD arm NCT02022306, Dose 60.00, 3 Hours, read-out: Concentration",70.5 ng/mL
same,concentration at 4 h,"female, plasma, oral, 60 mg, Female subjects, SAD arm NCT02022306, Dose 60.00, 4 Hours, read-out: Concentration",94.5 ng/mL
same,concentration at 6 h,"female, plasma, oral, 60 mg, Female subjects, SAD arm NCT02022306, Dose 60.00, 6 Hours, read-out: Concentration",109 ng/mL
same,concentration at 8 h,"female, plasma, oral, 60 mg, Female subjects, SAD arm NCT02022306, Dose 60.00, 8 Hours, read-out: Concentration",87.4 ng/mL
same,concentration at 12 h,"female, plasma, oral, 60 mg, Female subjects, SAD arm NCT02022306, Dose 60.00, 12 Hours, read-out: Concentration",60.5 ng/mL
same,concentration at 15 min,"female, plasma, oral, 60 mg, Female subjects, SAD arm NCT02022306, Dose 60.00, 15 Minutes, read-out: Concentration",0 ng/mL
same,concentration at 24 h,"female, plasma, oral, 60 mg, Female subjects, SAD arm NCT02022306, Dose 60.00, 24 Hours, read-out: Concentration",38.9 ng/mL
same,concentration at 30 min,"female, plasma, oral, 60 mg, Female subjects, SAD arm NCT02022306, Dose 60.00, 30 Minutes, read-out: Concentration",0.74 ng/mL
same,concentration at 48 h,"female, plasma, oral, 60 mg, Female subjects, SAD arm NCT02022306, Dose 60.00, 48 Hours, read-out: Concentration",29.3 ng/mL
same,concentration at 72 h,"female, plasma, oral, 60 mg, Female subjects, SAD arm NCT02022306, Dose 60.00, 72 Hours, read-out: Concentration",22.4 ng/mL
same,concentration at 96 h,"female, plasma, oral, 60 mg, Female subjects, SAD arm NCT02022306, Dose 60.00, 96 Hours, read-out: Concentration",17.2 ng/mL
same,concentration at 120 h,"female, plasma, oral, 60 mg, Female subjects, SAD arm NCT02022306, Dose 60.00, 120 Hours, read-out: Concentration",12.8 ng/mL
same,concentration at 144 h,"female, plasma, oral, 60 mg, Female subjects, SAD arm NCT02022306, Dose 60.00, 144 Hours, read-out: Concentration",11.1 ng/mL
same,concentration at 168 h,"female, plasma, oral, 60 mg, Female subjects, SAD arm NCT02022306, Dose 60.00, 168 Hours, read-out: Concentration",8.61 ng/mL
same,concentration at 3 h,"in vivo, 1.5 mg, Male subjects, SAD arm NCT02022306, Dose 1.50, 3 Hours, read-out: Concentration",1.48 ng/mL
same,concentration at 4 h,"in vivo, 1.5 mg, Male subjects, SAD arm NCT02022306, Dose 1.50, 4 Hours, read-out: Concentration",1.92 ng/mL
same,concentration at 6 h,"in vivo, 1.5 mg, Male subjects, SAD arm NCT02022306, Dose 1.50, 6 Hours, read-out: Concentration",1.07 ng/mL
same,concentration at 120 h,"in vivo, 5 mg, Female subjects, SAD arm NCT02022306, Dose 5.00, 120 Hours, read-out: Concentration",1.07 ng/mL
same,concentration at 48 h,"in vivo, 5 mg, Male subjects, SAD arm NCT02022306, Dose 5.00, 48 Hours, read-out: Concentration",1.81 ng/mL
same,concentration at 120 h,"in vivo, 5 mg, Male subjects, SAD arm NCT02022306, Dose 5.00, 120 Hours, read-out: Concentration",1.48 ng/mL
same,concentration at 168 h,"in vivo, 15 mg, Male subjects, SAD arm NCT02022306, Dose 15.00, 168 Hours, read-out: Concentration",2.59 ng/mL
same,concentration at 2 h,"in vivo, 30 mg, Male subjects, SAD arm NCT02022306, Dose 30.00, 2 Hours, read-out: Concentration",8.22 ng/mL
same,concentration at 30 min,"in vivo, 120 mg, Male subjects, SAD arm NCT02022306, Dose 120.00, 30 Minutes, read-out: Concentration (ng/ml)",1.01 ng/mL
same,concentration at 168 h,"in vivo, 120 mg, Male subjects, SAD arm NCT02022306, Dose 120.00, 168 Hours, read-out: Concentration (ng/ml)",10.2 ng/mL
same,concentration at 312 h,"in vivo, 240 mg, Male subjects, SAD arm NCT02022306, Dose 240.00, 312 Hours, read-out: Concentration (ng/ml)",4.88 ng/mL
same,TD-6450 concentration,"in vivo, 48 h",107.00 ng/mL
same,TD-6450 concentration,"in vivo, 72 h",273.00 ng/mL
same,TD-6450 concentration,"in vivo, 96 h",123.00 ng/mL
same,TD-6450 concentration,"in vivo, 120 h",102.00 ng/mL
same,TD-6450 concentration,"in vivo, 144 h",74.40 ng/mL
same,TD-6450 concentration,"in vivo, 336 h",6.38 ng/mL
same,Cmax,"plasma, oral, 60 mg, SAD 60 mg, read-out: Cmax Mean ± SD",123 ± 60.3 nM
same,half-life,"plasma, oral, 60 mg, SAD 60 mg, read-out: t1/2 Mean ± SD (converted)",61.4 ± 11.8 h
same,TD-6450 concentration,"male, in vivo",0.00 ng/mL
same,TD-6450 concentration,"male, in vivo, 2 h",179.00 ng/mL
same,TD-6450 concentration,"male, in vivo, 3 h",273.00 ng/mL
same,TD-6450 concentration,"male, in vivo, 4 h",303.00 ng/mL
same,TD-6450 concentration,"male, in vivo, 6 h",309.00 ng/mL
same,TD-6450 concentration,"male, in vivo, 12 h",216.00 ng/mL
same,TD-6450 concentration,"male, in vivo, 24 h",144.00 ng/mL
same,TD-6450 concentration,"male, in vivo, 48 h",90.40 ng/mL
same,TD-6450 concentration,"male, in vivo, 72 h",61.10 ng/mL
same,TD-6450 concentration,"male, in vivo, 96 h",40.80 ng/mL
